Ends that are not written are not given here.
Tests used:
Assay type in all cases: cell-based, human
[1] = system: T-cells; assay: PBMC culture pulsed with long polypeptide, restimulation, intracellular cytokine (IFNγ) assay, healthy donors; parameters: key to Testing (confirmed immunogenicity in healthy donors): *: Represents polypeptides confirmed to be immunogenic in 4/4 healthy donors.; ¶: Represents polypeptides confirmed to be immunogenic in one healthy donor; details: for immunogenicity (frequency of antigen-specific T-cells): FIGS. 4C and 4D, unvaccinated HLA-A2.1+ healthy volunteers; for immune response by antigen specific IFNγ production: FIGS. 4C and D, CD4+ and CD8+ T cells, four healthy donors, background subtracted
Procedure: The SEA polypeptides, CMV long polypeptide, and VNTR polypeptide were tested in a culture system. Briefly, bulk peripheral blood mononuclear cells (PBMC) were thawed and exposed to GM-CSF on day 0 in culture. […] On day 2, media was washed out, and the cells were split 1:6 in fresh media containing IL-7 for T-cell expansion. Further splits occurred with simple addition of more media containing IL-7 depending upon acidity of the media between days 7-15. On day 16, an antigen specific restimulation of T-cell cultures was performed utilizing fresh PBMC as the antigen presenting cells. These fresh PBMC were thawed on day 14 and treated the same way as the initial culture on days 0-1, before being used on day 16. At the time of restimulation, an intracellular cytokine assay was performed. The T-cell cultures also were allowed to proliferate for an additional […] in media containing IL-7. At the end of culture, day 28, T-cells were further tested with a new intracellular cytokine assay utilizing fresh PBMC, prepared the same way as the PBMC used on day 16 for the first intracellular cytokine assay. Representative dot-plots for IFNγ levels are shown for the CMV pp65 polypeptide and the SEA2 polypeptide, with levels being much lower when T-cells were not restimulated with the same polypeptide they saw at the initiation of culture. […] Each data point represents the level of IFNγ after subtracting the levels of IFNγ from restimulation with irrelevant polypeptides or no polypeptide from levels when T-cells were restimulated with the original polypeptide.
The synthesized long peptides were individually pulsed onto GM+R848+LPS conditioned PBMC cultures established from unvaccinated HLA-A2.1+ healthy volunteers, then expanded in rhIL-7 or rhIL-7+rhIL-2. […] Proliferation of CD4+ and CD8^+ T-cells was indistinguishable, with both subsets retaining their initial proportionality during expansion.

[2] = system: SEA1-specific T-cells; assay: Effect of C-terminal amidation on sensitizing Ag-specific IFNγ T cells; details: FIG. 9; one healthy donor; versus SEA1 without C-terminal amidation
From the text: Amidated polypeptides were amidated at the C-terminus as described elsewhere (see, e.g., Brinckerhoff et al., Int. J. Cancer 83 (3): 326-34 (1999)).
A cocktail of peptides such as SEA1, SEA1-amide, acetyl-SEA1 and acetyl-SEA1-amide can be used to capture a broadened SEA1 response (or similarly for any other peptide).

[3] = system: MDA-MB-231.MUC1; assay: Cr51 release lysis by peptide-driven T-cells; details: T-cells from 3 donors; FIG. 6
From the text: T-cells from GM+R848+LPS conditioned PBMC driven by either SEA2 or SEA1 long peptides not only specifically recognized one or both of these sensitizing peptides at restimulation, but also preferentially lysed the HLA-A2.1+ human breast cancer line MDA-MB-231 transduced to express MUC1 (MDA-MB-231.MUC1) compared to MDA-MB-231.Neo control targets. […] Polyclonally driven T-cells from all 3 donors lysed MDA-MB-231.MUC1 indistinguishably from MDA-MB-231.Neo.

Substance | Testing (confirmed immunogenicity in healthy donors) [1] | further results
AHGVTSAPDTRPAPGSTAPPAHGV [VNTR, reference compound] |  | immunogenicity (frequency of antigen-specific T-cells) [1]: reproducibly less effective
11 (LSFLQDIQEVQGYVLIAHNQVRQVPLQRL; immunogenic polypeptide) [compound 11] | ¶/HER2 | 
6 (STDYYQELQRDISEMFLQIYKQGGFLGLSNIKFRPGSVV; immunogenic polypeptide) [compound 6] | */MUC1 | 
18 (DLSVFQNLQVIRGRILHNGAYSLTLQGLG; immunogenic polypeptide) [compound 18] | ¶/HER2 | 
SQEPMSIYVYALPLKMLNIPSINVHHYP [SEQ ID NO: 1] |  | immunogenicity (frequency of antigen-specific T-cells) [1]: highly immunogenic; immune response by antigen specific IFNγ production [1]: consistently exhibited an immune response
SPQLSTGVSFFFLSFHISNLQFNSSLEDPSTD-amide (SPQLSTGVSFFFLSFHISNLQFNSSLEDPSTD-NH2) [SEA1-amide, SEA1 amidated at the C-terminus] |  | SEA1-specific CD8+ T-cell response [2]: less affected by amidation; sensitizing SEA1-specific CD4+ IFNγ-producing T-cells [2]: far superior
SPQLSTGVSFFFLSFHISNLQFNSSLEDPSTD [SEA1] |  | immunogenicity (frequency of antigen-specific T-cells) [1]: highly immunogenic; immune response by antigen specific IFNγ production [1]: consistently exhibited an immune response; lysis of MDA-MB-231.MUC1 compared to MDA-MB-231.Neo control targets [3]: significantly more
16 (NIQEFAGCKKIFGSLAFLPESFDGDP; immunogenic polypeptide) [compound 16] | ¶/HER2 | 
7 (VHDVETQFNQYKTEAASRYNLTISDVSVSDVPFP; immunogenic polypeptide) [compound 7] | */MUC1 | 
STDYYQELQRDISEMFLQIYKQGGFLGLSNIKFRPGSVV [SEA2] |  | immunogenicity (frequency of antigen-specific T-cells) [1]: highly immunogenic; immune response by antigen specific IFNγ production [1]: consistently exhibited an immune response; lysis of MDA-MB-231.MUC1 compared to MDA-MB-231.Neo control targets [3]: significantly more
13 (TEILKGGVLIQRNPQLCYQDTILWKDIFH; immunogenic polypeptide) [compound 13] | ¶/HER2 | 
12 (AHNQVRQVPLQRLRIVRGTQLFEDNYALA; immunogenic polypeptide) [compound 12] | ¶/HER2 | 
26 (GVGSPYVSRLLGICLTSTVQLVTQLM; immunogenic polypeptide) [compound 26] | ¶/HER2 | 
33 (SECRPRFRELVSEFSRMARDPQRFVVIQ; immunogenic polypeptide) [compound 33] | ¶/HER2 | 
14 (YQDTILWKDIFHKNNQLALTLIDTNRSRACHPC; immunogenic polypeptide) [compound 14] | ¶/HER2 | 
17 (VFETLEEITGYLYISAWPDSLPDLSV; immunogenic polypeptide) [compound 17] | ¶/HER2 | 
3 (NRPALGSTAPPVHNVTSASGSASGSASTLV; immunogenic polypeptide) [compound 3] | */MUC1 | 
29 (DLAARNVLVKSPNHVKITDFG; immunogenic polypeptide) [compound 29] | ¶/HER2 | 
5 (STSPQLSTGVSFFFLSFHISNLQFNSSLEDPSTD; immunogenic polypeptide) [compound 5] | */MUC1 | 
20 (ELGSGLALIHHNTHLCFVHTVPW; immunogenic polypeptide) [compound 20] | ¶/HER2 | 
30 (DGGKVPIKWMALESILRRRFTHQS; immunogenic polypeptide) [compound 30] | ¶/HER2 | 
24 (IKRRQQKIRKYTMRRLLQETELVEPLTPS; immunogenic polypeptide) [compound 24] | ¶/HER2 | 
57 (GVGSPYVSRLLGICLTSTVQLV; immunogenic polypeptide) [compound 57] | ¶/HER2 | 

Source: US12622956B2, “Methods and vaccines for inducing immune responses to multiple different MHC molecules” (Mayo Foundation for Medical Education and Research, priority 2015, dated 2026)
